Consider 41 molecules from PubChem BioAssay (NCI).

Molecules are shown by their SMILES. Several values for one entry are separate records, joined by “and”; a condition that tells them apart may be missing. Identical values can stand only once.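 96-well plates; 48 h exposure; 5 concentrations. Endpoints by linear interpolation between flanking doses. Not reached: highest tested concentration assigned. GI50 is the concentration that inhibits growth by half. At the TGI there is no net growth.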 Where a SMILES comes first, the peptide text is derived from it. [ ]: non-standard residue; d: D form. The star is where a group is joined. X13 = OC[C@H](CC1CCCCC1)N*; Aib = CC(C)(N)C(=O)O Some results are limits rather than exact numbers.

The test system of the assay is MDA-MB-468 breast. Nature of the assay: NCI-60 cell line screen, 48 h.
With `Cc1ccccc1C1=C(c2cn(C)c3ccccc23)C(=O)NC1=O`, the GI50 is 15.5 µM and the TGI is more than 25 µM. On the same counts, the results for `COc1ccc(-c2cc(/C=C3\C(=O)Nc4cc(Cl)ccc43)[nH]n2)cc1` are 2.62 µM and 9.48 µM. With `CCn1c(-c2nonc2N)nc2c(C#CC(C)(C)O)ncc(OC3CCNCC3)c21`, the GI50 is 0.267 µM and the TGI came to 10.4 µM. Turning to `CN1CCN(Cc2ccc(NC(=O)c3cncc(C#Cc4c(N)ncc5ccc(C#N)cc45)c3)cc2C(F)(F)F)CC1`, the GI50 is 2.89 µM and the TGI amounted to 11.5 µM. As for `O=C(CCCn1c2c(sc3ccccc32)c(=O)n2nnc(-c3ccccc3)c12)NCCc1cnc[nH]1`, the GI50 is 0.664 µM and the TGI is 1.94 µM. For `CS(=O)(=O)N1CCC(n2c(=O)c(Oc3ccc(F)cc3F)cc3cnc(NC4CCOCC4)nc32)CC1` the same measures were more than 25 µM and more than 25 µM. On the same counts, the results for `CNCc1cccc2c1OCCCCCCC(C)(O)CC(C)(C)S(=O)(=O)c1ccc(cc1)-c1cnc(N)c(n1)C(=O)N2` (stereo unspecified) are 0.196 µM and 1.16 µM. Consider `NC(=O)c1cccc2c(N[C@H](CN3CCC3)c3ccc(Cl)c(C(F)(F)F)c3)ncnc12`, for which the GI50 was 0.108 µM and the TGI was found to be 1.28 µM. For `COC1=CC(c2ccc[nH]2)=N/C1=C\c1[nH]c(C)c(C(=O)CCC(=O)Oc2ccc3c(c2)CCC2C3CC[C@]3(C)[C@@H](O)CC[C@@H]23)c1C` (stereo partly specified) the same measures were 2.52 µM and 39.8 µM. For `CC(=O)NC(C)(C)C(=O)N[C@@H](C)C(=O)NC(C)(C)C(=O)N[C@@H](C)C(=O)NC(C)(C)C(=O)N[C@@H](C)C(=O)N[C@@H](CCC(N)=O)C(=O)NC(C)(C)C(=O)N[C@H](C(=O)NC(C)(C)C(=O)NCC(=O)N[C@@H](CC(C)C)C(=O)NC(C)(C)C(=O)N1CCC[C@H]1C(=O)N[C@H](C(=O)NC(C)(C)C(=O)NC(C)(C)C(=O)N[C@@H](CCC(N)=O)C(=O)N[C@@H](CCC(N)=O)C(=O)N[C@H](CO)CC1CCCCC1)C(C)C)C(C)C` (Ac-[Aib]A[Aib]A[Aib]AQ[Aib]V[Aib]GL[Aib]PV[Aib][Aib]QQ-X13) the same measures were 0.665 µM and more than 4.35 µM. For `Oc1cc(N2CC2)c(O)cc1N1CC1` the same measures were 0.201 µM and 1.27 µM. Take `Cc1ccc([P+](Cc2ccccc2)(c2ccccc2)c2ccccc2)cc1`: the GI50 was 0.517 µM and the TGI came to 8.64 µM. Take `CS(=O)(=O)CCNCc1ccc(-c2ccc3ncnc(Nc4ccc(OCc5cccc(F)c5)c(Cl)c4)c3c2)o1`: the GI50 is 0.0518 µM and 0.0571 µM and 0.013 µM; the TGI is 0.818 µM and 0.999 µM and 0.152 µM. With `C/C(CCC(=O)O)=N/Nc1ccc([N+](=O)[O-])cc1`, the GI50 is more than 100 µM and the TGI was more than 100 µM. `Cc1ccc(F)c(NC(=O)Nc2ccc(-c3cccc4[nH]nc(N)c34)cc2)c1`: the GI50 is 2.37 µM and 1.86 µM; the TGI was 5.28 µM and 4.61 µM. As for `N#CC1C[C@@H]2CC3(CCC2CN1C(=O)c1ccccc1)OCCO3` (stereo partly specified), the GI50 was more than 100 µM and the TGI was more than 100 µM. In the case of `Oc1c(C(Nc2ccccn2)c2cccc(Oc3ccccc3)c2)ccc2cccnc12` (stereo unspecified), the GI50 was 0.441 µM and the TGI turned out to be 8.92 µM. As to `O=C(/C=C/C12c3ccccc3C(c3ccccc31)C1C(=O)N(c3ccc(Cl)cc3)C(=O)C12)c1ccccn1` (stereo unspecified), the GI50 was 0.398 µM. As to `CCCCCCC1N=C(N)N=C(N)N1c1cccc(Cl)c1` (stereo unspecified), the GI50 is 0.122 µM and the TGI was found to be 0.936 µM. Take `CN1CCN(C(=O)[C@@]2(C)CC[C@]3(C)CC[C@]4(C)C(=CC[C@@H]5[C@@]6(C)CCC(=O)NC(C)(C)[C@@H]6CC[C@]54C)[C@@H]3C2)CC1`: the GI50 was 1.22 µM and the TGI is 2.82 µM. For `COC(=O)c1ccc2nc(-c3cc4ccccc4n3C)n(CCCCOc3cc4c(cc3OC)C(=O)N3CCC[C@H]3C=N4)c2c1` the same measures were 0.356 µM and 1.26 µM.

On to `CCCCCCCCCCCCCC[n+]1ccccc1`, for which the GI50 is 0.111 µM and the TGI is 0.631 µM. `C[C@@H](N)COc1ccc(-c2cnc3ccc(N[C@H](C)c4cccc(F)c4)nn23)cc1`: the GI50 is 1.13 µM and the TGI was 2.67 µM. As for `CN1CC=C(c2cc(NC(=O)Nc3ccc(Oc4ccnc(NC(=O)C5CC5)c4)c(F)c3)cc(C(F)(F)F)c2)CC1`, the GI50 was 0.286 µM and the TGI was found to be 1.99 µM. For `Cn1cc(C2=C(c3c4n(c5ccccc35)CCNC4)C(=O)NC2=O)c2ccccc21` the same measures were 3.81 µM and more than 20.9 µM.

For the molecule `N#Cc1c(NCc2ccccc2)nc(NCc2ccccc2)c(C#N)c1-c1ccc(Cl)cc1`, the GI50 was more than 50 µM and the TGI is more than 50 µM.

Regarding `CC(c1cc(Cl)ccc1O)c1cc(Cl)ccc1O`, the GI50 is 2.98 µM and the TGI came out at 9.47 µM. Consider `Cc1ccc(-c2nc3nc(-c4ccc(F)cc4)nc(N4CCNCC4)c3o2)cc1`, for which the GI50 is 1.74 µM and the TGI came out at 3.38 µM.

In the case of `OCc1ccc(-c2csc(-c3ccc(CO)o3)c2)o1`, the GI50 is 0.188 µM and the TGI came to 0.486 µM.

Consider `O=C(c1ccccc1)C(Cl)C(Cl)c1ccccc1` (stereo unspecified), for which the GI50 is 1.38 µM and the TGI turned out to be 4.31 µM. As for `C[C@H](c1ccc(F)cc1CCCC(=O)O)N(c1cc(F)ccc1F)S(=O)(=O)c1ccc(Cl)cc1`, the GI50 is 17.3 µM and the TGI worked out at 84.7 µM.

Take `CNC(=O)c1nn(C)c2c1C(C)(C)Cc1cnc(Nc3cccc(N4CCN(C)CC4)c3)nc1-2`: the GI50 is 0.348 µM and the TGI is 3.3 µM. Take `CC1=C/C=C/C(=O)O[C@@H]([C@H](C)[C@H](O)[C@@H](C)NC(=O)C(C)C)[C@H](C)/C=C/C(C)=C/[C@H]2C=CCC[C@@]2(C)\C=C\1`: the GI50 is 0.11 µM and 0.0235 µM; the TGI worked out at 6.41 µM. With `CCN1CCC(CC(=O)Nc2n[nH]c3nnc(-c4cccc(F)c4F)cc23)CC1`, the GI50 was 3.45 µM and the TGI is more than 23 µM.

As to `COc1ccc2c(c1)N(Cc1ccc(Cl)cc1)CCC2N1CCCC1=O` (stereo unspecified), the GI50 is 3.41 µM and the TGI stood at 19.9 µM. For `Cc1ccc(C2=Nn3c(nnc3-c3ccccc3)SC2)cc1` the same measures were 1.69 µM and 8.08 µM. On the same counts, the results for `CN(C)C1CCN(Cc2ccc(NC(=O)c3cncc(C#Cc4cnc(N)c5ncccc45)c3)cc2C(F)(F)F)CC1` are 6.49 µM and 16.5 µM. On the same counts, the results for `CNS(=O)(=O)OCC1OC(n2cnc3cncnc32)C(O)C1O` (stereo unspecified) are more than 100 µM and more than 100 µM. As to `CCC(C)(C)c1cc(O)c(C(C)(C)CC)cc1O`, the GI50 was 2.11 µM and the TGI came to 5.8 µM. On the same counts, the results for `O=C([O][Hg][c]1ccccc1)c1ccccc1` are 0.435 µM and 1.94 µM. For the molecule `COc1cc(-c2cc3ncccc3c3nc(OCCN(C)C)c4cccnc4c23)cc(OC)c1OC`, the GI50 was 0.919 µM and the TGI amounted to 5.36 µM.
